Assay results taken from EPA's ToxRefDB 2.

How the values were obtained:
rat [1] = settings: Fertility (Segment I), Oral, Gavage/Intubation, dose end: 1 generation, group: parental
rat [2] = settings: Prenatal developmental toxicity study, sprague dawley, Oral, Gavage/Intubation, dose end: 18 GD
rabbit [3] = settings: Prenatal developmental toxicity study, new zealand white, Oral, Gavage/Intubation, dose end: 19 GD
rat [4] = settings: Sub-acute repeat dose toxicity, sprague dawley, Oral, Gavage/Intubation, dose end: 14 day, group: systemic
primate [5] = settings: Sub-acute repeat dose toxicity, Oral, Gavage/Intubation, dose end: 28 day, group: systemic
rat [6] = settings: Chronic toxicity, sprague dawley, Oral, Gavage/Intubation, dose end: 180 day, group: systemic
rat [7] = settings: Fertility (Segment I), Oral, Gavage/Intubation, dose end: 1 generation, group: parental; remark: listed apart in the source
primate [8] = settings: Sub-acute repeat dose toxicity, Oral, Gavage/Intubation, dose end: 10 day, group: systemic
rat [9] = settings: Sub-acute repeat dose toxicity; sprague dawley; Oral; Gavage/Intubation; dose end: 29 day; group: systemic; systemic / in life observation / clinical signs / salivation
rabbit [10] = settings: Sub-acute repeat dose toxicity, Oral, Gavage/Intubation, dose end: 5 day, group: systemic
rabbit [11] = settings: Sub-acute repeat dose toxicity, Oral, Gavage/Intubation, dose end: 13 day
rat [12] = settings: Fertility (Segment I), Oral, Gavage/Intubation, dose end: 1 generation, group: parental; remark: listed apart in the source
rabbit [13] = settings: Prenatal developmental toxicity study; Oral; Gavage/Intubation; dose end: 19 GD; group: maternal; reproductive / reproductive performance / aborted / aborted + systemic / in life observation / food consumption / food consumption + …
rat [14] = settings: Fertility (Segment I), Oral, Gavage/Intubation, dose end: 1 generation
rat [15] = settings: Prenatal developmental toxicity study; sprague dawley; Oral; Gavage/Intubation; dose end: 18 GD; group: maternal; systemic / in life observation / body weight / body weight gain + systemic / in life observation / food consumption / food consumption
[16] = systemic / in life observation / clinical signs / fur (altered appearance) + systemic / in life observation / clinical signs / salivation
[17] = systemic / in life observation / clinical signs / salivation
[18] = group: developmental, developmental / developmental malformation / bone / delayed ossification + systemic / in life observation / body weight / fetal weight
[19] = group: maternal, systemic / in life observation / clinical signs / salivation
[20] = group: maternal, systemic / in life observation / clinical signs / salivation + systemic / in life observation / body weight / body weight gain
[21] = group: developmental, systemic / in life observation / body weight / fetal weight
[22] = group: maternal, systemic / in life observation / body weight / body weight + systemic / in life observation / body weight / body weight gain + systemic / in…
[23] = systemic / in life observation / body weight / body weight gain + systemic / in life observation / clinical signs / dehydration + systemic…
[24] = systemic / clinical chemistry / [other] / [other] + systemic / in life observation / clinical signs / abnormal feces + systemic / in life …
[25] = systemic / clinical chemistry / 5' nucleotidase / 5' nucleotidase + systemic / clinical chemistry / alanine aminotransferase (alt/sgpt) / …
[26] = systemic / in life observation / body weight / body weight gain + systemic / in life observation / food consumption / food consumption
[27] = systemic / in life observation / clinical signs / abnormal respiratory sounds + systemic / in life observation / clinical signs / fur (…
[28] = systemic / in life observation / clinical signs / abnormal feces + systemic / in life observation / clinical signs / salivation
[29] = systemic / in life observation / clinical signs / abnormal feces + systemic / in life observation / clinical signs / salivation + systemic…
[30] = systemic / in life observation / body weight / body weight + systemic / in life observation / clinical signs / abnormal feces + systemic / …
[31] = group: maternal, reproductive / reproductive performance / aborted / aborted + reproductive / reproductive performance / resorptions / resorptions
[32] = group: systemic, systemic / in life observation / body weight / body weight gain + systemic / in life observation / food consumption / food consumption
[33] = systemic / in life observation / body weight / body weight + systemic / in life observation / food consumption / food consumption + systemic…
[34] = group: maternal, reproductive / reproductive performance / estrous cycle / abnormal
[35] = group: parental, systemic / in life observation / food consumption / food consumption

Work on `CC(C)(O)c1coc(S(=O)(=O)NC(=O)Nc2c3c(cc4c2CCC4)CCC3)c1` yielded an LOAEL (rat [1]; [16]) of over 500 mg/kg/day, an NOAEL (rat [1]; [16]) of at least 500 mg/kg/day and an LEL (rat [1]; [17]) of 25 mg/kg/day. It also gave an NEL (rat [1]; [17]) of under 25 mg/kg/day, an LEL (rat [2]; [18]) of 500 mg/kg/day and an LOAEL (rat [2]; [18]) of over 500 mg/kg/day. It also gave an NOAEL (rat [2]; [18]) of at least 500 mg/kg/day, an LEL (rat [2]; [19]) of 50 mg/kg/day and an NEL (rat [2]; [19]) of under 50 mg/kg/day. It also gave an LOAEL (rat [2]; [20]) of over 500 mg/kg/day, an NOAEL (rat [2]; [20]) of at least 500 mg/kg/day and an LEL (rabbit [3]; [21]) of 250 mg/kg/day. It also gave an LOAEL (rabbit [3]; [21]) of over 250 mg/kg/day, an NOAEL (rabbit [3]; [21]) of at least 250 mg/kg/day and an LEL (rabbit [3]; [22]) of 250 mg/kg/day. The LOAEL (rabbit [3]; [22]) was over 250 mg/kg/day, the NEL (rabbit [3]; [22]) was 100 mg/kg/day and the NOAEL (rabbit [3]; [22]) was at least 250 mg/kg/day. The LOAEL (rat [4]; [23]) was over 1000 mg/kg/day, the NOAEL (rat [4]; [23]) was at least 1000 mg/kg/day and the LEL (rat [4]; [17]) was 100 mg/kg/day. The NEL (rat [4]; [17]) was under 100 mg/kg/day, the LOAEL (primate [5]; [24]) was over 200 mg/kg/day and the NEL (primate [5]; [24]) was 2 mg/kg/day. It also gave an NOAEL (primate [5]; [24]) of at least 200 mg/kg/day, an LEL (primate [5]; systemic / in life observation / clinical signs / abnormal feces) of 50 mg/kg/day and an LOAEL (rat [6]; [25]) of over 500 mg/kg/day. The NOAEL (rat [6]; [25]) was at least 500 mg/kg/day, the LEL (rat [6]; [26]) was 25 mg/kg/day and the NEL (rat [6]; [26]) was under 25 mg/kg/day. For the same molecule, the LOAEL (rat [7]; [27]) was over 500 mg/kg/day, the NOAEL (rat [7]; [27]) was at least 500 mg/kg/day and the LEL (rat [7]; [17]) was 25 mg/kg/day. For the same molecule, the NEL (rat [7]; [17]) was under 25 mg/kg/day, the LEL (primate [8]; [28]) was 10 mg/kg/day and the NEL (primate [8]; [28]) was under 10 mg/kg/day. The LOAEL (primate [8]; [29]) was over 200 mg/kg/day, the NOAEL (primate [8]; [29]) was at least 200 mg/kg/day and the LEL (rat [9]) was 100 mg/kg/day. The LOAEL (rat [9]) was over 500 mg/kg/day, the NEL (rat [9]) was 10 mg/kg/day and the NOAEL (rat [9]) was at least 500 mg/kg/day. For the same molecule, the LOAEL (rabbit [10]; [30]) was over 500 mg/kg/day, the NEL (rabbit [10]; [30]) was 50 mg/kg/day and the NOAEL (rabbit [10]; [30]) was at least 500 mg/kg/day. It also gave an LEL (rabbit [10]; systemic / in life observation / food consumption / food consumption) of 250 mg/kg/day.

With `CNCc1ccc(NC(=O)c2c[nH]c3c2C(=O)CCC3)cc1` the LEL (rabbit [11]; [31]) was 300 mg/kg/day, the LOAEL (rabbit [11]; [31]) was over 300 mg/kg/day and the NEL (rabbit [11]; [31]) was 150 mg/kg/day. It also gave an NOAEL (rabbit [11]; [31]) of at least 300 mg/kg/day, an LEL (rabbit [11]; [32]) of 300 mg/kg/day and an LOAEL (rabbit [11]; [32]) of over 300 mg/kg/day. It also gave an NEL (rabbit [11]; [32]) of 150 mg/kg/day, an NOAEL (rabbit [11]; [32]) of at least 300 mg/kg/day and an LOAEL (rat [12]; [33]) of over 1000 mg/kg/day. For the same molecule, the NEL (rat [12]; [33]) was 25 mg/kg/day, the NOAEL (rat [12]; [33]) was at least 1000 mg/kg/day and the LEL (rat [12]; systemic / in life observation / body weight / body weight + systemic / pathology gross / intestine large / dilatation) was 250 mg/kg/day. The LEL (rabbit [13]) was 300 mg/kg/day, the LOAEL (rabbit [13]) was over 300 mg/kg/day and the NEL (rabbit [13]) was 100 mg/kg/day. For the same molecule, the NOAEL (rabbit [13]) was at least 300 mg/kg/day, the LEL (rat [14]; [34]) was 250 mg/kg/day and the LOAEL (rat [14]; [34]) was over 1000 mg/kg/day. For the same molecule, the NEL (rat [14]; [34]) was 25 mg/kg/day, the NOAEL (rat [14]; [34]) was at least 1000 mg/kg/day and the LEL (rat [14]; [35]) was 1000 mg/kg/day. The LOAEL (rat [14]; [35]) was over 1000 mg/kg/day, the NEL (rat [14]; [35]) was 250 mg/kg/day and the NOAEL (rat [14]; [35]) was at least 1000 mg/kg/day. It also gave an LEL (rat [15]) of 250 mg/kg/day, an LOAEL (rat [15]) of over 1000 mg/kg/day and an NEL (rat [15]) of 25 mg/kg/day. It also gave an NOAEL (rat [15]) of at least 1000 mg/kg/day.
